Experimental data taken from ChEMBL document CHEMBL3352542, “Synthesis, biological evaluation and molecular modeling study of 2-(1,3,4-thiadiazolyl-thio and 4-methyl-thiazolyl-thio)-quinazolin-4-ones as a new class of DHFR inhibitors” (Bioorg Med Chem Lett, 2014).
The source made the active and inactive calls. The rule behind the calls is not given here.

What was measured:
HT-29 = test: Growth inhibition of human HT-29 cells at 10 uM after 48 hrs; assay type: functional
HOP-62 = test: Growth inhibition of human HOP62 cells at 10 uM after 48 hrs; assay type: functional
RPMI-8226 = test: Growth inhibition of human RPMI8226 cells at 10 uM after 48 hrs; assay type: functional
HCT-116 = test: Growth inhibition of human HCT116 cells at 10 uM after 48 hrs; assay type: functional
Staphylococcus aureus = test: Antimicrobial activity against Staphylococcus aureus assessed as inhibition zone at 200 ug/disk after 24 hrs by disc-diffusion method; assay type: functional; conditions: read-out: IZ
MOLT-4 = test: Growth inhibition of human MOLT4 cells at 10 uM after 48 hrs; assay type: functional
Hs-578T = test: Growth inhibition of human Hs 578T cells at 10 uM after 48 hrs; assay type: functional
MDA-MB-435 = test: Growth inhibition of human MDA-MB-435 cells at 10 uM after 48 hrs; assay type: functional
Bacillus subtilis = test: Antimicrobial activity against Bacillus subtilis assessed as inhibition zone at 200 ug/disk after 24 hrs by disc-diffusion method; assay type: functional; conditions: read-out: IZ
U-251 = test: Growth inhibition of human U251 cells at 10 uM after 48 hrs; assay type: functional
A498 = test: Growth inhibition of human A498 cells at 10 uM after 48 hrs; assay type: functional
786-0 = test: Growth inhibition of human 786-0 cells at 10 uM after 48 hrs; assay type: functional
Dihydrofolate reductase = target: T1, Dihydrofolate reductase (Bos taurus, UniProt P00376); test: Inhibition of bovine liver DHFR
T1 sequence (P00376 whole entry): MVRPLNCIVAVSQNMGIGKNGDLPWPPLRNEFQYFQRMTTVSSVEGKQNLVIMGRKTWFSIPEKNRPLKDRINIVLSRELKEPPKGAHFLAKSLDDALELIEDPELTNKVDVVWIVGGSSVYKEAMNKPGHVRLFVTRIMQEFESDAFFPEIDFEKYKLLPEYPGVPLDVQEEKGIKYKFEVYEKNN

NCI-H226 = test: Growth inhibition of human NCI-H226 cells at 10 uM after 48 hrs; assay type: functional
Pseudomonas aeruginosa = test: Antimicrobial activity against Pseudomonas aeruginosa assessed as inhibition zone at 200 ug/disk after 24 hrs by disc-diffusion method; assay type: functional; conditions: read-out: IZ
T47D = test: Growth inhibition of human T47D cells at 10 uM after 48 hrs; assay type: functional
CAKI-1 = test: Growth inhibition of human CAKI-1 cells at 10 uM after 48 hrs; assay type: functional
UACC-62 = test: Growth inhibition of human UACC62 cells at 10 uM after 48 hrs; assay type: functional
HOP-92 = test: Growth inhibition of human HOP92 cells at 10 uM after 48 hrs; assay type: functional
MDA-MB-231 = test: Growth inhibition of human MDA-MB-231 cells at 10 uM after 48 hrs; assay type: functional
K562 = test: Growth inhibition of human K562 cells at 10 uM after 48 hrs; assay type: functional
OVCAR-4 = test: Growth inhibition of human OVCAR4 cells at 10 uM after 48 hrs; assay type: functional
SK-MEL-28 = test: Growth inhibition of human SK-MEL-28 cells at 10 uM after 48 hrs; assay type: functional, cell-based
UO-31 = test: Growth inhibition of human UO31 cells at 10 uM after 48 hrs; assay type: functional
SF-295 = test: Growth inhibition of human SF295 cells at 10 uM after 48 hrs; assay type: functional
MDA-MB-468 = test: Growth inhibition of human MDA-MB-468 cells at 10 uM after 48 hrs; assay type: functional
CCRF-CEM = test: Growth inhibition of human CCRF-CEM cells at 10 uM after 48 hrs; assay type: functional
Escherichia coli = test: Antimicrobial activity against Escherichia coli assessed as inhibition zone at 200 ug/disk after 24 hrs by disc-diffusion method; assay type: functional; conditions: read-out: IZ
SF-539 = test: Growth inhibition of human SF539 cells at 10 uM after 48 hrs; assay type: functional
MCF7 = test: Growth inhibition of human MCF7 cells at 10 uM after 48 hrs; assay type: functional
UACC-257 = test: Growth inhibition of human UACC257 cells at 10 uM after 48 hrs; assay type: functional
A549 = test: Growth inhibition of human A549 cells at 10 uM after 48 hrs; assay type: functional
Candida albicans = test: Antimicrobial activity against Candida albicans assessed as inhibition zone at 200 ug/disk after 24 hrs by disc-diffusion method; assay type: functional; conditions: read-out: IZ
RXF 393 = test: Growth inhibition of human RXF393 cells at 10 uM after 48 hrs; assay type: functional
PC-3 = test: Growth inhibition of human PC3 cells at 10 uM after 48 hrs; assay type: functional
HCT-15 = test: Growth inhibition of human HCT15 cells at 10 uM after 48 hrs; assay type: functional
SNB-19 = test: Growth inhibition of human SNB19 cells at 10 uM after 48 hrs; assay type: functional
SR = test: Growth inhibition of human SR cells at 10 uM after 48 hrs; assay type: functional
KM12 = test: Growth inhibition of human KM12 cells at 10 uM after 48 hrs; assay type: functional
HL-60(TB) = test: Growth inhibition of human HL-60(TB) cells at 10 uM after 48 hrs; assay type: functional
SK-MEL-5 = test: Growth inhibition of human SK-MEL-5 cells at 10 uM after 48 hrs; assay type: functional
NCI-H522 = test: Growth inhibition of human NCI-H522 cells at 10 uM after 48 hrs; assay type: functional
Malme-3M = test: Growth inhibition of human MALME-3M cells at 10 uM after 48 hrs; assay type: functional

Structure (SMILES): COc1ccc(-n2c(Sc3nnc(N)s3)nc3ccc(C)cc3c2=O)cc1
- growth inhibition (GI) (HT-29): inactive
- growth inhibition (GI) (HOP-62): inactive
- growth inhibition (GI) (RPMI-8226): inactive
- growth inhibition (GI) (HCT-116): inactive
- zone of inhibition at 200 µg/disc (Staphylococcus aureus): 8 mm
- growth inhibition (GI) (MOLT-4): inactive
- growth inhibition (GI) (Hs-578T): inactive
- growth inhibition (GI) (MDA-MB-435): inactive
- zone of inhibition at 200 µg/disc (Bacillus subtilis): 8 mm
- growth inhibition (GI) (U-251): inactive
- growth inhibition (GI) (A498): inactive
- growth inhibition (GI) (786-0): inactive
- IC50 (Dihydrofolate reductase): 3000 nM
- growth inhibition (GI) (NCI-H226): inactive
- zone of inhibition at 200 µg/disc (Pseudomonas aeruginosa): 8 mm
- growth inhibition (GI) (T47D): inactive
- growth inhibition (GI) (CAKI-1): inactive
- growth inhibition (GI) (UACC-62): inactive
- growth inhibition (GI) (HOP-92): inactive
- growth inhibition (GI) (MDA-MB-231): inactive
- growth inhibition (GI) (K562): inactive
- growth inhibition (GI) (OVCAR-4): inactive
- growth inhibition (GI) (SK-MEL-28): inactive
- growth inhibition (GI) (UO-31): inactive
- growth inhibition (GI) (SF-295): inactive
- growth inhibition (GI) (MDA-MB-468): inactive
- growth inhibition (GI) (CCRF-CEM): inactive
- zone of inhibition at 200 µg/disc (Escherichia coli): 8 mm
- growth inhibition (GI) (SF-539): inactive
- growth inhibition (GI) (MCF7): inactive
- growth inhibition (GI) (UACC-257): inactive
- growth inhibition (GI) (A549): inactive
- zone of inhibition at 200 µg/disc (Candida albicans): 8 mm
- growth inhibition (GI) (RXF 393): inactive
- growth inhibition (GI) (PC-3): inactive
- growth inhibition (GI) (HCT-15): inactive
- growth inhibition (GI) (SNB-19): inactive
- growth inhibition (GI) (SR): inactive
- growth inhibition (GI) (KM12): inactive
- growth inhibition (GI) (HL-60(TB)): inactive
- growth inhibition (GI) (SK-MEL-5): inactive
- growth inhibition (GI) (NCI-H522): inactive
- growth inhibition (GI) (Malme-3M): inactive

Structure (SMILES): Cc1ccc2nc(Sc3nnc(N)s3)n(-c3ccc(Oc4ccccc4)cc3)c(=O)c2c1
- growth inhibition (GI) (HT-29): inactive
- growth inhibition (GI) (HOP-62): inactive
- growth inhibition (GI) (RPMI-8226): inactive
- growth inhibition (GI) (HCT-116): inactive
- zone of inhibition at 200 µg/disc (Staphylococcus aureus): 8 mm
- growth inhibition (GI) (MOLT-4): inactive
- growth inhibition (GI) (Hs-578T): inactive
- growth inhibition (GI) (MDA-MB-435): inactive
- zone of inhibition at 200 µg/disc (Bacillus subtilis): 8 mm
- growth inhibition (GI) (U-251): inactive
- growth inhibition (GI) (A498): inactive
- growth inhibition (GI) (786-0): inactive
- IC50 (Dihydrofolate reductase): 100 nM
- growth inhibition (GI) (NCI-H226): inactive
- zone of inhibition at 200 µg/disc (Pseudomonas aeruginosa): 8 mm
- growth inhibition (GI) (T47D): inactive
- growth inhibition (GI) (CAKI-1): inactive
- growth inhibition (GI) (UACC-62): inactive
- growth inhibition (GI) (HOP-92): inactive
- growth inhibition (GI) (MDA-MB-231): inactive
- growth inhibition (GI) (K562): inactive
- growth inhibition (GI) (OVCAR-4): inactive
- growth inhibition (GI) (SK-MEL-28): inactive
- growth inhibition (GI) (UO-31): inactive
- growth inhibition (GI) (SF-295): inactive
- growth inhibition (GI) (MDA-MB-468): inactive
- growth inhibition (GI) (CCRF-CEM): inactive
- zone of inhibition at 200 µg/disc (Escherichia coli): 8 mm
- growth inhibition (GI) (SF-539): inactive
- growth inhibition (GI) (MCF7): inactive
- growth inhibition (GI) (UACC-257): inactive
- growth inhibition (GI) (A549): inactive
- zone of inhibition at 200 µg/disc (Candida albicans): 8 mm
- growth inhibition (GI) (RXF 393): inactive
- growth inhibition (GI) (PC-3): inactive
- growth inhibition (GI) (HCT-15): inactive
- growth inhibition (GI) (SNB-19): inactive
- growth inhibition (GI) (SR): inactive
- growth inhibition (GI) (KM12): inactive
- growth inhibition (GI) (HL-60(TB)): inactive
- growth inhibition (GI) (SK-MEL-5): inactive
- growth inhibition (GI) (NCI-H522): inactive
- growth inhibition (GI) (Malme-3M): inactive
